Assay results from patent publication US20070225213A1, “Nucleic acid carriers for delivery of therapeutic agents” (priority 2006, published 2007).

Tests used:
human MCF-7 cells = assay: Visually scored toxicity of NAC-MTN / NAC-DOX at fixed loading (Example 3); assay type: cell-based; conditions: 5.6 ug/ml final drug; 5.1% drug loading; 16 hour incubation
Procedure: Toxicity of NAC-MTN or NAC-DOX, at 50, 16.9, 5.6, and 1.9 ug/ml final drug concentration and 5.1 % drug loading in human MCF-7 cells. Sample A: 15 mg of HSDNA (EX031804A) was combined with 0.76 mg MTN(mw 517.4) or (sample B) 0.76 mg DOX (mw 579.99) to give 152 ug/ml final drug and 5.1% loading in 5 ml final vol. Samples C, D were MTN, or DOX only controls at equivalent final [drug] without HSDNA. Sample E was HSDNA, no drug and sample F was H2O only. MCF-7 cells were trypsinized and plated out previously. Triplicate samples were diluted 0.1 ml in 0.2 ml 1× media to give 3× fold serial dilution in 0.2 ml final. After 16 hour incubation the cells were visually inspected for signs of toxicity. Toxicity was scored as the following: 50%=one half all cells rounded, un-adhered or crenated.

3T3 = assay: Cell uptake by MTN fluorescence EX620/EM680 (Examples 10 and 13, EX051605); assay type: cell-based, mouse; conditions: 10% w/w loading in DNA
Procedure: Materials: HSGDNA, MTN, ODNAS1116 (phosphorothioated, single stranded DNA, and Beta-cyclodextrin polymer (BCD-SBE, KKBIOMED Inc.) were previously prepared in water at 10 mg/ml, 1 mg/ml, 0.95 mg/ml, and 10 mg/ml respectively.
Procedure: For NAC-MTN, combined 37 ul HSGDNA (herring genomic DNA, Promega Inc.), 1426 ul HBSS( Hank's buffered saline, Sigma-Aldrich), with 37 ul of MTN, followed by 1500 ul 2× DMEM media to give 3 ml final and 24 uM (24 micro-molar) MTN and 10% w/w drug loading of MTN. For NAC-MTN (AR1505) combined 62 ul of HSDNA (deg. herring sperm DNA, Sigma) with 2377 ul HBSS, 61.7 ul MTN, 2500 ul 2× media to give 5 ml final and 24 uM MTN and 10% w/w drug loading of MTN to HSDNA. […]
Plate#1 Media was aspirated and cells treated with 100 ul of either NAC-MTN, CD-MTN, or MTN at 24 uM MTN final or 12.3 ug/ml MTN in all samples. Samples containing MTN were incubated 4 hours, removed, and fluorescence taken at EX620/EM680. […]
Samples were incubated 4 hours, removed, and MTN fluorescence taken at EX620/EM680. […] Average MTN fluorescence was averaged from 6 wells. For each cell type, MTN fluorescence was highest in MTN treated cells, followed by CD-MTN, and lowest in NAC-MTN. […]
PLATE#2: Dispensed 50 ul from source plate into plate #2 to give 150 ul final vol 4.1 ug/ml, 8 uMfinal per well, pre-read fluorescence w samples (bkgd) incubated 5 hr, removed, replaced w/ media, read fluor. […]

[1] = In vivo MTN recovery in mouse urine after single i.v. dose (Example 17)
Procedure: NAC-MTN or MTN alone was administered intravenously to mice via the tail vein. […] After 2 hours, NAC-MTN or MTN was detected in urine, quantified by absorbance at 665 nm, and reported as % of total.
Procedure. […] White mice, n=2 were tail vein injected with 0.25 ml of either NAC-MTN or MTN alone. […] MTN was quantified in mouse urine by absorbance of 0.2 ml sample at 665 nm, and converted to mg/ml using an MTN standard curve.
To determine if NAC-MTN was excreted in urine as a complex, MTN fluorescence due to unbound NAC was assayed by an addition method. DNA was added to urine from both groups and subsequent change in fluorescence was measured.

[2] = In vivo MTN distribution in organs and recovery in urine after multiple i.v. dosing (Example 16, EX102205)
Procedure: Differential targeting and distribution of NAC-MTN or MTN in major organs of the mouse. NAC-MTN or MTN was administered intravenously to mice and detected in major organs after 24 hours. […] Total MTN in tissues was quantified by MTN fluorescence, normalized against total tissue weight, and reported as MTN mg/g tissue.
Mice n=2, were injected i.v. with repeated dose of either NAC-MTN or MTN alone. MTN administered was the same for each mouse.
A 0.4 ml volume of each NAC-MTN or MTN formulation was prepared for injection in HBSS or H2O (Hanks Buffered Saline, Sigma-Aldrich) as indicated below. For NAC-MTN injection, 45 ul 10 mg/ml MTN was diluted first in 325 ul of HBSS solution, then 180 ul of herring sperm DNA (HSDNA, 50 mg/ml stock neutralized, 0.2 um filtered) was added to give a turquoise blue color. […] In MTN injection, 45 ul 10 mg/ml MTN was diluted in 385 ul of H2O.
On day 1, white mice, n=2, 24 g each, were tail vein injected by a micro-catheter with 0.16 ml at 14:50 or 0.15 ml at 15:30, respectively of either NAC-MTN or MTN. A second injection was followed at 17:00 and 16:50 of 0.2 ml each of NAC-MTN or MTN. To quantify total MTN retained, mouse urine was collected after 1st and 2nd injection. Total MTN was assayed in mouse urine immediately after 1st injection and second injection by reading MTN fluorescence 620/680 s=50 of a 0.2 ml sample in a styrene well, bottom read. […] A third dose of 0.2 ml was given the next morning, 22 hours after 1st injection (day 2), of either NAC-MTN or MTN. […] Twenty four hours after first injection (day 2), mice were sacrificed and MTN assayed in major organs. The liver, kidneys, heart, and lung were homogenized at high speed 50,000 rpm, and treated with 1% SDS (sodium dodecyl sulfate). The homogenates were frozen twice and centrifuged for 30 minutes at 14000 rcf.

[3] = Elapsed Time 2.5 hr, 0.281 mg MTN i.v.
[4] = three i.v. doses, 24 hours after first injection

## O=C1c2c(O)ccc(O)c2C(=O)c2c(NCCNCCO)ccc(NCCNCCO)c21 [MTN, mitoxantrone]
Human MCF-7 cells
  Toxicity (visual score): 90%
3T3; Plate#1, 24 uM MTN, 4 hours
  % reduction in fluorescence relative to MTN alone (MTN = 0%): 0%
3T3; Plate#2, 8 uM MTN
  % reduction in fluorescence relative to MTN alone (MTN = 0%): 0%
[1]; [3]
  FLUOR. (mouse urine): 4086
  MTN % recov. in urine (% of total dose): 1.9%
[1]; Elapsed Time 5 hr
  FLUOR. (mouse urine): 4405
  MTN % recov. in urine (% of total dose): 1.6%
[1]; Elapsed Time 8 hr
  FLUOR. (mouse urine): 4455
  MTN % recov. in urine (% of total dose): 3.8%
[2]; Collect Time 0-2 hr
  MTN % dose recov. (urine): 2.9%
[2]; Collect Time 0-2 hr, dose 0.18 mg (NAC-MTN) or 0.17 mg (MTN) at 0 hr
  MTN Recov. (urine): 0.0049 mg
[2]; Collect Time 3-12 hr
  MTN % dose recov. (urine): 12%
[2]; Collect Time 3-12 hr, dose 0.225 mg at 3 hr
  MTN Recov. (urine): 0.0279 mg
[2]; Collect Time 12-24 hr
  MTN % dose recov. (urine): 13%
[2]; Collect Time 12-24 hr, dose 0.225 mg at 22 hr
  MTN Recov. (urine): 0.0297 mg
[2]; [4]
  MTN in Heart: 0.033 mg/g tissue
  MTN in Kidney: 0.26 mg/g tissue
  MTN in Liver: 0.077 mg/g tissue
  MTN in Lung: 0.027 mg/g tissue
[2]; three i.v. doses, 24 hours after first injection, listed as MTN only
  MTN in Kidney: 0.261 mg/g tissue
